In ChEMBL document CHEMBL1201862, “PubChem BioAssay data set” (2004):
Values belong to the compound of their own block, whether it stands above or below them. The source made the active and inactive calls.

Tests used:
[1] = target: Peroxisome proliferator-activated receptor gamma/Nuclear receptor corepressor 2 (Homo sapiens, UniProt P37231+Q9Y618); experiment: Counterscreen for NR2E3 inverse agonists: TR-FRET-based biochemical high throughput dose response assay to identify inverse agonists of the interaction between peroxisome proliferator-activated receptor gamma (PPARg) and nuclear receptor co-repressor 2 (NCOR2).; assay type: functional
[2] = target: Photoreceptor-specific nuclear receptor (Homo sapiens, UniProt Q9Y5X4); experiment: ligands suppressing NR2E3 nuclear receptor activity – biochemical, TR-FRET, dose response (AID 463256); assay type: functional
Chain of Photoreceptor-specific nuclear receptor (Q9Y5X4 whole entry): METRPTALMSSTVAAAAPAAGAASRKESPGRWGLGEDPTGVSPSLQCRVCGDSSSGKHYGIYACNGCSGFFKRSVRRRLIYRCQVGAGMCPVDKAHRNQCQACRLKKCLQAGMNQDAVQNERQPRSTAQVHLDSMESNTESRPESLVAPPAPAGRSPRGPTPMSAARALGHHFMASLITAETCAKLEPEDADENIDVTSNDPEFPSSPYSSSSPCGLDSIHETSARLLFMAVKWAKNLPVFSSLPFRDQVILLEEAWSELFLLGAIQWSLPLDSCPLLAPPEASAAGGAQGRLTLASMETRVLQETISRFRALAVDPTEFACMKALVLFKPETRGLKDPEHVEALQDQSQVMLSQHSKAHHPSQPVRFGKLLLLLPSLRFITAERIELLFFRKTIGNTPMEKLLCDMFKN

[3] = target: Heat shock protein HSP 90-alpha (Homo sapiens, UniProt P07900); experiment: Luminescence-based dose response biochemical high throughput screening assay for inhibitors of the Heat Shock Protein 90 (HSP90). [Related pubchem assays: 1831 (Summary AID.), 1846 (Confirmation screen.), 1789 (Primary screen.)]
[4] = target: T1, SUMO-activating enzyme (Homo sapiens, UniProt Q9UBT2); experiment: blockers of SAE1/SAE2–UBC9 SUMO transfer – biochemical, HTRF, uHTS, primary screen (AID 2006); assay type: protein-complex assay
T1 sequence (Q9UBE0 whole entry): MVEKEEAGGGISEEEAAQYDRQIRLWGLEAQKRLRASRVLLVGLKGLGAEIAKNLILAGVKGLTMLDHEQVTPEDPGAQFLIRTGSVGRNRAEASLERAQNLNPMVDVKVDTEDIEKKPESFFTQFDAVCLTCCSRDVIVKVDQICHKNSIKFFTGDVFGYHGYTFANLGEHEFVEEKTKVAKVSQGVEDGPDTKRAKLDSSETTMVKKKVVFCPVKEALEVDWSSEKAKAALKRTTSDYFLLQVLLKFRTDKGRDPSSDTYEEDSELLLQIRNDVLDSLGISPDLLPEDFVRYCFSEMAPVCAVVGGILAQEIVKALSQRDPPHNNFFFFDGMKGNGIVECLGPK
T1 sequence (Q9UBT2 whole entry): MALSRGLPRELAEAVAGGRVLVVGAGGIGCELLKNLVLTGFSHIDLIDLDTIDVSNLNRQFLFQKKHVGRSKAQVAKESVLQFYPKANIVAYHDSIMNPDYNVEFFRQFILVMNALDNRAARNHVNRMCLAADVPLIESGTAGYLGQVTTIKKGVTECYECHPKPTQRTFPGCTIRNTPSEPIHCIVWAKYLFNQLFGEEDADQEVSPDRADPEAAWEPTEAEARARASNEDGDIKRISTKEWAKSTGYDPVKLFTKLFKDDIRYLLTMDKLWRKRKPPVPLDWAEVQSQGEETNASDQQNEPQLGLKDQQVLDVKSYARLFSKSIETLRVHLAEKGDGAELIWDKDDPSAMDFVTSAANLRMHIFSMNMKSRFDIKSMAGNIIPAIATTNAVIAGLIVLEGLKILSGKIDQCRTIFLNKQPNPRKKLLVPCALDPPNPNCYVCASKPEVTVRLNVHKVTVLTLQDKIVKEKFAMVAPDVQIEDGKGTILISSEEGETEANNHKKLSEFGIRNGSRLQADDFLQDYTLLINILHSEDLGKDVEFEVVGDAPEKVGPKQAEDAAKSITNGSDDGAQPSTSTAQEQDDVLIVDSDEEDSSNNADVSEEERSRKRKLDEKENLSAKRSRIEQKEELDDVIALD

[5] = target: T2, Tyrosyl-DNA phosphodiesterase 2 (Homo sapiens, UniProt O95551); experiment: potency against TDP2 phosphodiesterase activity – biochemical, epi absorbance, IC50, dose response (AID 743297)
T2 sequence (O95551 whole entry): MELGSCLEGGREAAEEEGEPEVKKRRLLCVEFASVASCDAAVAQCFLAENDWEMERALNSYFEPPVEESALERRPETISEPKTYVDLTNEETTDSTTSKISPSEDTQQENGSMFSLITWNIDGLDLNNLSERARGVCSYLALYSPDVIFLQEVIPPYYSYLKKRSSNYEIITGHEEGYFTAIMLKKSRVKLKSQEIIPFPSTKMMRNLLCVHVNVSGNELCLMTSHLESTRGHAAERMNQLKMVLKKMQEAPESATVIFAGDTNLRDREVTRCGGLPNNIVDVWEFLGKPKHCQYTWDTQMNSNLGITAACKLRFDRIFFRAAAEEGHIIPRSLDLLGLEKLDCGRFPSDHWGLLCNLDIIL

[6] = target: SUMO E1/E2 (Homo sapiens, UniProt P63279+Q9UBE0+Q9UBT2); experiment: SAR analysis of SUMOylation using HTRF in an in-Vitro dose response assay. [Related pubchem assays (depositor defined):AID2006, AID2011, AID2018, AID2069, AID2658]; assay type: functional
Chain of SUMO E1/E2 (Q9UBE0 whole entry): as the sequence (Q9UBE0 whole entry) above
Chain of SUMO E1/E2 (Q9UBT2 whole entry): as the sequence (Q9UBT2 whole entry) above
Chain of SUMO E1/E2 (P63279 whole entry): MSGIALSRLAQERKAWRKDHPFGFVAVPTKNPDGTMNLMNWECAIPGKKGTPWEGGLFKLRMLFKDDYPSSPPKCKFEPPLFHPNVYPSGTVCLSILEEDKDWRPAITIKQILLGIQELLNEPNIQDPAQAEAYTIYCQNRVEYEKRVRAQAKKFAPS

[7] = target: T1, SUMO-activating enzyme; experiment: blockers of UBC9-mediated SUMO conjugation – biochemical, AlphaScreen, SUMOylation inhibitor project, confirmation (AID 2018); assay type: functional
[8] = target: T3, Aminopeptidase N (Plasmodium falciparum FcB1/Columbia, UniProt O96935); experiment: malaria alanyl aminopeptidase activity blockers – biochemical, fluorogenic H-Leu-NHMec substrate, 1536-well (AID 1445); set-up: species or system Plasmodium falciparum 3D7, 3D7
T3 sequence (O96935 whole entry): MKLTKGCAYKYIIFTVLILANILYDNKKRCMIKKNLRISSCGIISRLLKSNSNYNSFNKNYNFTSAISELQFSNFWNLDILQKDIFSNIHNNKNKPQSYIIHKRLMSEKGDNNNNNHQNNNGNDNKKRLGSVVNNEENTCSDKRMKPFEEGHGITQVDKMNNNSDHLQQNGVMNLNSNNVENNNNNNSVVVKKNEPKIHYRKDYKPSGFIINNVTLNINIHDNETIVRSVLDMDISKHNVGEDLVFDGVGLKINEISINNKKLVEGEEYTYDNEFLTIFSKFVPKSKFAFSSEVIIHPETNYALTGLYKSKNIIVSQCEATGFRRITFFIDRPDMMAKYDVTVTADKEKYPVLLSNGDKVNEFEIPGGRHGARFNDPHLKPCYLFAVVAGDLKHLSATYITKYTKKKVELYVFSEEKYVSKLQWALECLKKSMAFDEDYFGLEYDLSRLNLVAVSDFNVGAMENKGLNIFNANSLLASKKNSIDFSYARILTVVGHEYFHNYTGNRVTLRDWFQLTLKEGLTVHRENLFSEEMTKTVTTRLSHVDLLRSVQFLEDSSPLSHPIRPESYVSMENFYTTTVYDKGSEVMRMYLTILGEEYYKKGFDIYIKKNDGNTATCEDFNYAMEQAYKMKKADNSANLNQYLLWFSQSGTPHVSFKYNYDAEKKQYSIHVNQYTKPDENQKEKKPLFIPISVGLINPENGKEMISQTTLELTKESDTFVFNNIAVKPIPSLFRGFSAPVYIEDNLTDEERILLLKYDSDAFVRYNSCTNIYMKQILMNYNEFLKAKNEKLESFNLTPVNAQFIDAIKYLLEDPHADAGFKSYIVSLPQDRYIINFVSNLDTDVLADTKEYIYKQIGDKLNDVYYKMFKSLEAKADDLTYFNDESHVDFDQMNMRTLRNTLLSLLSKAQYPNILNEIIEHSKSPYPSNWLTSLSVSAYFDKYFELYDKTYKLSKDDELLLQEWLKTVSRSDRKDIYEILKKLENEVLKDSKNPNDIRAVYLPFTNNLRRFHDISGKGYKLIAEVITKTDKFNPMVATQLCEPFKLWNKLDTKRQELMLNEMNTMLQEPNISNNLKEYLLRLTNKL

[9] = target: Mitogen-activated protein kinase 10 (Homo sapiens, UniProt P53779); experiment: Dose response biochemical screening assay for inhibitors of c-Jun N-Terminal Kinase 3 (JNK3). [Related pubchem assays: 746 ]
Chain of Mitogen-activated protein kinase 10 (P53779 whole entry): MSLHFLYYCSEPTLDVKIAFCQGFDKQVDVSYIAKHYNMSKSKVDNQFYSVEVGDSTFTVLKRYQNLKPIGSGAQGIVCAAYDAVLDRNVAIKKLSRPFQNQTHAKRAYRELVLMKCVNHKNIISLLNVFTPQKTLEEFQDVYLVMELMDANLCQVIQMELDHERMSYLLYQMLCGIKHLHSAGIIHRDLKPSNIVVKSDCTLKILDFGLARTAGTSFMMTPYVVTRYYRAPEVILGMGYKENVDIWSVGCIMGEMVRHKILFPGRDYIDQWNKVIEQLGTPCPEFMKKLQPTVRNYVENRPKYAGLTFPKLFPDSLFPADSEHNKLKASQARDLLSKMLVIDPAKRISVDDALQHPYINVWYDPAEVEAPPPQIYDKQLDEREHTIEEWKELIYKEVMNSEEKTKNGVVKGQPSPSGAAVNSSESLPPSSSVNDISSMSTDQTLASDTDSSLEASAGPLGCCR

[10] = target: Prothrombin (Homo sapiens, UniProt P00734); experiment: Thrombin 1536 HTS Dose Response Confirmation. [Related pubchem assays: 1046 (Thrombin 1536 HTS; hits were confirmed in this assay)]; assay type: functional
[11] = target: Dual specificity protein phosphatase 6 (Rattus norvegicus, UniProt Q64346); experiment: inhibition of rat DUSP6 enzyme activity – biochemical, in vitro, primary screen (AID 425)
Chain of Dual specificity protein phosphatase 6 (Q64346 whole entry): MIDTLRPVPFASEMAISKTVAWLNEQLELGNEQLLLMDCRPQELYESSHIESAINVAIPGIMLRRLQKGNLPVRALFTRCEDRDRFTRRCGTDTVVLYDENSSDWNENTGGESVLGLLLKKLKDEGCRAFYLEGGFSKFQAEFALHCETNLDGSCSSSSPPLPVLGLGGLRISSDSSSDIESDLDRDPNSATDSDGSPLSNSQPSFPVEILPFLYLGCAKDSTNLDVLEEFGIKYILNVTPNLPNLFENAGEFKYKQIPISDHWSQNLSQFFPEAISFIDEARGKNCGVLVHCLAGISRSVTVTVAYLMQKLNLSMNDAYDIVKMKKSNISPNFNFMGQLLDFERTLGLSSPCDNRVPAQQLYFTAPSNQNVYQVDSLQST

[12] = Fluorescence Cell-Based Dose Response to Identify Inhibitors of Thrombin Receptor-Activating Peptide SFLLRN-Mediated P-Selectin Induction on Platelets. [Related pubchem assays: 1663 (Primary HTS), 1889 (retest at dose ), 1891 (counterscreen), 1678 (Project Summary)]; assay type: functional
[13] = Luminescence Cell-Based Dose Confirmation HTS to Identify Inhibitors of Platelet Dense Granule Release. [Related pubchem assays: 1663 (Primary HTS), 1678 (Summary of Project)]; assay type: functional
[14] = target: Luciferin 4-monooxygenase (Photinus pyralis, UniProt P08659); experiment: inhibition of purified Photinus pyralis luciferase – biochemical, luminescence, dose response (AID 1891)
Chain of Luciferin 4-monooxygenase (P08659 whole entry): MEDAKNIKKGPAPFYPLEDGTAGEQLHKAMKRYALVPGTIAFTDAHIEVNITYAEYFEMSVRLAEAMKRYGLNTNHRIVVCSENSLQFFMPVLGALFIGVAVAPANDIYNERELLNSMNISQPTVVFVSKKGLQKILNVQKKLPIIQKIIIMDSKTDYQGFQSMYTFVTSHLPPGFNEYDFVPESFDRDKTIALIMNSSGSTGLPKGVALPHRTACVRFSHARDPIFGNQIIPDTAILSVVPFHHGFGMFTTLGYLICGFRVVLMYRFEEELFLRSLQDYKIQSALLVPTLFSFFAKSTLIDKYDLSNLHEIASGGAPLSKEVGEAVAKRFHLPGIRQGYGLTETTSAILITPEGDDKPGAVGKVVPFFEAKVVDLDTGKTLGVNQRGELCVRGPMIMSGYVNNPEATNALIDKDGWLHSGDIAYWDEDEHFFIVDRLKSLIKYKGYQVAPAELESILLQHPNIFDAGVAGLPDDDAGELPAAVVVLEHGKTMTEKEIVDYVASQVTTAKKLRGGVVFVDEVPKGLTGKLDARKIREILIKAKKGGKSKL

[15] = target: Diphosphomevalonate decarboxylase (Streptococcus pneumoniae serotype 2 (strain D39 / NCTC 7466), UniProt Q9FD53); experiment: diphosphomevalonate decarboxylase inhibitor confirmation – biochemical, cuvette format, coupled NADH fluorescence (AID 1028); assay type: functional
Chain of Diphosphomevalonate decarboxylase (Q9FD53 whole entry): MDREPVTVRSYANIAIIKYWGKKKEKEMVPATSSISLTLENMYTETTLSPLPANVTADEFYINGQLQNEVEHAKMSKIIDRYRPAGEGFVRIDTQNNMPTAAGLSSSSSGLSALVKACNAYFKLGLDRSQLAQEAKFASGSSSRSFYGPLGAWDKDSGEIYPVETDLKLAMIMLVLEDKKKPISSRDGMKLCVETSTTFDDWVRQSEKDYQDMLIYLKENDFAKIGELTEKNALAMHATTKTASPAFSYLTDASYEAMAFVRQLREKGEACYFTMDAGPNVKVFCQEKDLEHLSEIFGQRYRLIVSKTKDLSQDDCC

[16] = target: E3 ubiquitin-protein ligase Mdm2 (Homo sapiens, UniProt Q00987); experiment: MDM2-luc reporter signal enhancers, multi-concentration potency testing, MDM2 ubiquitin-protein ligase inhibitor program, whole-cell format, luminescence detection, 384-well microplate (AID 1394); assay type: functional;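 note: MDM2 E3 inhibitors raise luminescence so EC50 is for signal enhancement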
Chain of E3 ubiquitin-protein ligase Mdm2 (Q00987 whole entry): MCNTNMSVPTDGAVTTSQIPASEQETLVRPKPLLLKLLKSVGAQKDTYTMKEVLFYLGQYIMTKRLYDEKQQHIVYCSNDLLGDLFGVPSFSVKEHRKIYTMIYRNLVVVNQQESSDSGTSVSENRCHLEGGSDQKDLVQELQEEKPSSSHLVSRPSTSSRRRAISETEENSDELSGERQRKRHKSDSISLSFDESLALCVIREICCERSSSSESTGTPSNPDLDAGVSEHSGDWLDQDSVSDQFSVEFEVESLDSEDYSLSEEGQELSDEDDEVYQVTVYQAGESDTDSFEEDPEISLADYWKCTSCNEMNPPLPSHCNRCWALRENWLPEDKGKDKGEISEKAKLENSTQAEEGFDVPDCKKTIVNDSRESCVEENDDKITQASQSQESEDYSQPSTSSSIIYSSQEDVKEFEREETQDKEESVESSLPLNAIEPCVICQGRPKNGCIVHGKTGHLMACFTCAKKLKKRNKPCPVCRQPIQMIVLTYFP

[17] = RKO cell viability reduction, dose response, CellTiter-Glo luminescence (AID 1117322); assay type: functional
[18] = Reduced DLD-1 viability, concentration-response, CellTiter-Glo luminescence (AID 1117352); assay type: functional
[19] = tested on: Danio rerio; experiment: In Vivo Angiogenesis Dose-Response Confirmation. [Related pubchem assays: 732 (Assay preceding this confirmatory assay.)]; assay type: functional, organism-based
[20] = rise of 4N DNA cells, HeLa – IC50, dose response (AID 1117351); assay type: functional, cell-based
[21] = CellTiter-Glo luminescence survival assay, SW480 colon tumor line, concentration-response curve, half-maximal inhibitory concentration (AID 1117338); assay type: functional
[22] = cytotoxicity toward HCT116 cells – cell-based, CellTiter-Glo luminescence, IC50, dose response (AID 1117332); assay type: functional; settings: HCT-116
[23] = cytotoxicity toward Colo320 cells – cell-based, CellTiter-Glo luminescence, IC50, dose response (AID 1117334); assay type: functional; settings: COLO 320
[24] = rise of 2N DNA cells, HeLa – IC50, dose response (AID 1117349); assay type: functional, cell-based
[25] = cytotoxicity toward HT-29 cells – cell-based, CellTiter-Glo luminescence, IC50, dose response (AID 1117330); assay type: functional
[26] = SNU-C1 cell viability reduction, dose response, CellTiter-Glo luminescence (AID 1117323); assay type: functional, cell-based

IC50 [1]: > 39.8 µM (not active) | IC50 [2]: 18.7 µM (not active)
SMILES: CC(=O)Nc1cccc(Oc2nc(C(F)(F)F)nc3ccccc23)c1

IC50 [3]: 1.61 µM (active) | IC50 [4]: 1.5 µM (active) | IC50 [5]: 68.1 µM (inactive) | IC50 [6]: 4.29 µM (active) | IC50 [7]: 0.88 µM (active) | IC50 [8]: 36.2 µM (active)
SMILES: C=CCn1c(NS(=O)(=O)c2ccccc2)c(S(=O)(=O)c2ccc(C)cc2)c2nc3ccccc3nc21

IC50 [9]: > 93.1 µM (not active) | IC50 [10]: 4.14 µM (active)
SMILES: Cc1ccc2c(c1)CC1(CN2C)C(=O)OC2(CCCCC2)OC1=O

IC50 [11]: > 100 µM (not active)
SMILES: CCN(CC)CCCN1C(=O)C(O)=C(C(=O)c2ccccc2)C1c1ccccn1 (stereo unspecified)

SMILES: Cc1nc(O)c(C#N)c(C)c1CSc1ncccn1
EC50 [12]: < 1 µM (active) | EC50 [13]: 3.68 µM (active) | EC50 [14]: > 112 µM (not active)

SMILES: Cc1ccc(-n2sc3ccccc3c2=O)cc1S(=O)(=O)N1CCCC1
IC50 [15]: 4.15 µM (active)

EC50 [16]: 12.3 µM (not active)
SMILES: COc1ccc(-c2nc(C)c(C(C)=O)n2O)cc1

SMILES: Fc1ccc(C(OCCN2CCN(CCCc3ccccc3)CC2)c2ccc(F)cc2)cc1
IC50 [17]: 0.113 µM (active) | IC50 [18]: 0.903 µM (active) | IC50 [19]: 5.73 µM (not active) | IC50 [20]: > 10 µM (inactive) | IC50 [21]: 2.07 µM (active) | IC50 [22]: 4.87 µM (active) | IC50 [23]: > 20 µM (inactive) | IC50 [24]: > 10 µM (inactive) | IC50 [25]: 1.49 µM (active) | IC50 [26]: 1.82 µM (active)
